The text below walks through data of paper PMC12415477, “Electrostatic interactions influence diazabicyclooctane inhibitor potency against OXA-48-like β-lactamases” (RSC Medicinal Chemistry, 2025).

In general, IC50 refers to the concentration needed to halve the response being measured. The term Km denotes the substrate concentration at which the rate is half of its maximum. The kcat is the number of substrate molecules converted per active site and unit of time at saturation. In general, kcat/Km refers to the turnover number divided by the Michaelis constant. Broadly, the stoichiometry N is a count of units in the complex or per binding partner.

In data set [1] the target is T1, OXA-48 (Klebsiella pneumoniae, UniProt Q6XEC0).
T1 construct: pOPINF-OXA-48^(23-265) (previously cloned as described in Cahill et al); hexahistidine tag with 3C protease site (pOPINF) (N, cleaved yes); made in house; host or cells: E. coli BL21-DE3
Conditions: cited from earlier work; for Binding affinities and complex residence times against OXA-48: in words.

The target in data set [2] is T2, OXA-163 (Klebsiella pneumoniae, UniProt Q6XEC0, DEL214-217/S212D). The experiment in a line: IC50 determination, inhibition of nitrocefin hydrolysis by OXA-163. On the set-up: genes encoding the mature OXA-163^23-261 (GenBank HQ700343); hexahistidine tag with 3C protease site (pOPINF) (N, cleaved yes); made in house; host or cells: E. coli BL21-DE3. The data set is classed as biochemical.

The target of data set [3] is T1, OXA-48. Put plainly: IC50 determination, inhibition of nitrocefin hydrolysis by OXA-48. The data set is classed as biochemical. Conditions: for Fold difference in IC50, nacubactam versus avibactam, OXA-48: ratio nacubactam IC50 / avibactam IC50.
Data set [4] has as its system OXA-163. The experiment in a line: IC50 determination, inhibition of nitrocefin hydrolysis by OXA-163. Format: biochemical. Conditions: IC50 OXA-48 / IC50 OXA-163.
For data set [5], the target named is T3, OXA-405 (Klebsiella pneumoniae, UniProt Q6XEC0, DEL213-216). Put plainly: IC50 determination, inhibition of nitrocefin hydrolysis by OXA-405. Further details: genes encoding the mature OXA-163^23-261 (GenBank HQ700343) and OXA-405^23-261 (GenBank KM589641) open reading frames; hexahistidine tag with 3C protease site (pOPINF) (N, cleaved yes); made in house; host or cells: E. coli BL21-DE3. The data set is classed as biochemical.

Data set [6] concerns OXA-405. The data set is described as above. The note with it: IC50 OXA-48 / IC50 OXA-405. The data set is classed as biochemical.
The subject of data set [7] is O=C(Cc1cccs1)N[C@@H]1C(=O)N2C(C(=O)O)=C(/C=C/c3ccc([N+](=O)[O-])cc3[N+](=O)[O-])CS[C@H]12. Put plainly: purified protein, by the assay type. The note with it: other: 1 nM enzyme, pH 7.6.
The target of data set [8] is T3, OXA-405. The note with it: 1 nM enzyme, pH 7.6.
Description: (§1) All enzyme kinetics experiments were performed in 50 mM HEPES pH 7.6, 50 mM NaPO4 buffer supplemented with 50 mM NaHCO3 and 50 μg mL^−1 bovine serum albumin (BSA) in 96-well half area plates (Greiner, 675801).
For data set [9], the target named is T2, OXA-163. Conditions: 1 nM enzyme, pH 7.6.
Description: as §1
Data set [10] concerns the target OXA-405 β-lactamase (mature, residues 23-261). Put plainly: crystal structure; X-ray structures of the purified enzymes, uncomplexed and soaked with nacubactam or avibactam; crystals grown in 0.1 M HEPES pH 7.5 or 0.1 M Tris pH 8.5-9.0 with PEG 400 or PEG 550; homodimer seen in the crystal, chloride ion at the dimer interface.
The data set “crystal structure” deals with the molecule itself. Put plainly: crystal structure.
Where [11] appears, read: ratio nacubactam IC50 / avibactam IC50.

As for `NCCONC(=O)[C@@H]1CC[C@@H]2CN1C(=O)N2OS(=O)(=O)O` [nacubactam], the “Decrease in enzyme : inhibitor residence time (t1/2) compared to avibactam, OXA-48” value on OXA-48 [1] is listed as “approximately 37 fold”. Also, the “Increase in dissociation rate (koff) compared to avibactam, OXA-48” value on OXA-48 [1] is around 36 fold. For the same molecule, the 50% inhibitory concentration (IC50) at OXA-163 [2] was 1.23 µM; at OXA-48 [3] (1 nM enzyme pre-incubated 10 min with inhibitor, 75 μM nitrocefin, pH 7.6, read-out: IC50 against OXA-48) it was 19.9 µM; on OXA-405 [5], 10.6 µM. Besides, the “Fold difference in IC50, nacubactam versus avibactam, OXA-163” value at OXA-163 [2] (setting [11]) is 6.2 fold. Also, the “Fold difference in IC50, nacubactam versus avibactam, OXA-48” value on OXA-48 [3] was found to be 77 fold; on OXA-48 [3] (listed as Nacubactam) it was 76.6 fold. In the data set with OXA-163 [4], the “Increase in inhibition potency towards OXA-163 compared to OXA-48” value worked out at 16.2 fold. Besides, at OXA-405 [5] (setting [11]), the “Fold difference in IC50, nacubactam versus avibactam, OXA-405” value was found to be 10.7 fold. Moreover, the “Increase in inhibition potency towards OXA-405 compared to OXA-48” value with OXA-405 [6] was determined as 1.9 fold.
`O=C(NNC(=O)[C@@H]1CC[C@@H]2CN1C(=O)N2OS(=O)(=O)O)C1CNC1` [FPI-1602]: on OXA-48 [1], the “Binding affinities and complex residence times against OXA-48” value is “lower binding affinities and complex residence times”.
For OXA-48 (Klebsiella pneumoniae), in data set [7], the Km worked out at 114.4 µM, the kcat was determined as 515.0 s⁻¹ and the kcat/Km was found to be 5.2e+06 M⁻¹ s⁻¹.
On to `O=C(Cc1cccs1)N[C@@H]1C(=O)N2C(C(=O)O)=C(/C=C/c3ccc([N+](=O)[O-])cc3[N+](=O)[O-])CS[C@H]12` [nitrocefin], for which the “kcat, nitrocefin hydrolysis by OXA-405” value on OXA-405 [8] amounted to 113.9 s⁻¹. Further, the Michaelis constant (Km) on OXA-405 [8] (read-out: KM, nitrocefin hydrolysis by OXA-405) is 33.9 µM; on OXA-163 [9] (read-out: KM, nitrocefin hydrolysis by OXA-163) it was 13.4 µM. In addition, the “kcat, nitrocefin hydrolysis by OXA-163” value on OXA-163 [9] amounted to 64.5 s⁻¹.
In the case of `O=C(NO[C@@H]1CCNC1)[C@@H]1CC[C@@H]2CN1C(=O)N2OS(=O)(=O)O` [FPI-1465], the “Binding affinities and complex residence times against OXA-48” value on OXA-48 [1] is “lower binding affinities and complex residence times”.
Take “OXA-405 β-lactamase (mature, residues 23-261) (enzyme)”: the stoichiometry N in [10] was found to be 2.

B1: OXA-48 β-lactamase (residues 23-265) (enzyme)
chain: KEWQENKSWNAHFTEHKSQGVVVLWNENKQQGFTNNLKRANQAFLPASTFKIPNSLIALDLGVVKDEHQVFKWDGQTRDIATWNRDHNLITAMKYSVVPVYQEFARQIGEARMSKMLHAFDYGNEDISGNVDSFWLDGGIRISATEQISFLRKLYHNKLHVSERSQRIVKQAMLTEANGDYIIRAKTGYSTRIEPKIGWWVGWVELDDNVWFFAMNMDMPTSDGLGLRQAITKEVLKQEKIIP
notes: also called OXA-48^(23-265); OXA-48 carbapenemase; source: E. coli BL21-DE3, purified (Ni-NTA, 3C protease cleavage, second Ni-NTA, Superdex 75 SEC)
B1: the “stoichiometry N” value in “crystal structure” worked out at 2.

B2: OXA-163 β-lactamase (mature, residues 23-261) (enzyme)
chain: KEWQENKSWNAHFTEHKSQGVVVLWNENKQQGFTNNLKRANQAFLPASTFKIPNSLIALDLGVVKDEHQVFKWDGQTRDIATWNRDHNLITAMKYSVVPVYQEFARQIGEARMSKMLHAFDYGNEDISGNVDSFWLDGGIRISATEQISFLRKLYHNKLHVSERSQRIVKQAMLTEANGDYIIRAKTGYDTKIGWWVGWVELDDNVWFFAMNMDMPTSDGLGLRQAITKEVLKQEKIIP
notes: source: E. coli BL21-DE3, purified (Ni-NTA, 3C protease cleavage, second Ni-NTA, Superdex 75 SEC)
B2: in the data set “crystal structure”, the “stoichiometry N” value was found to be 2.
